The target of this experiment is KRas G12D (Homo sapiens (Human), UniProt P01116, G12D). Kind of experiment: KRas G12D Binding Assay (TR-FRET displacement of Cy5 labelled tracer). The following applies: GDP-loaded KRAS G12D (amino acids 1:169), 60 minute incubation at 22° C. The protocol: After a 60 minute incubation at 22° C., the reaction was measured using a PerkinElmer EnVision multimode plate reader via TR-FRET dual wavelength detection, and the percent of control (POC) calculated using a ratiometric emission factor. […] The POC values were fit to a 4-parameter logistic curve and the IC50 value was determined as the concentration where the curve crosses 50 POC.
ND stands for “not determined.”
Background: Time-resolved FRET reads energy transfer from a long-lived donor to a nearby acceptor.

KRas G12D, sequence (P01116 other isoform, or with tags, fused parts or gaps G12D): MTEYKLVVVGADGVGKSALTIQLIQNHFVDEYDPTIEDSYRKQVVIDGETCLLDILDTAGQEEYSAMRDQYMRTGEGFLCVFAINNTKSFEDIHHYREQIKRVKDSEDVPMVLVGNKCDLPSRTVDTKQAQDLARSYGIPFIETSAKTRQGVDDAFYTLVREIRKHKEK

A word on the IC50: it is the point on the concentration scale where inhibition reaches its midpoint. A high value points to weaker potency in that assay. With `CC1(N)CN(c2nc(N3C[C@H]4CC[C@@H](C3)N4)c3cnc(-c4cccc5cccc(Cl)c45)c(F)c3n2)C1` [Example 125, 1-(4-((1R,5S)-3,8-diazabicyclo[3.2.1]octan-3-yl)-7-(8-chloronaphthalen-1-yl)-8-fluoropyrido[4,3-d]pyrimidin-2-yl)-3-methylazetidin-3-amine], the 50% inhibitory concentration (IC50) came to 668 nM. The value for `CNC(=O)O[C@@H]1CN2CCC[C@]2(COc2nc(N3C[C@H]4CC[C@@H](C3)N4)c3cnc(-c4cccc5cccc(Cl)c45)c(F)c3n2)C1` [Example 435, (2S,7aR)-7a-(((4-((1R,5S)-3,8-diazabicyclo[3.2.1]octan-3-yl)-7-(8-chloronaphthalen-1-yl)-8-fluoropyrido[4,3-d]pyrimidin-2-yl)oxy)methyl)hexahydro-1H-pyrrolizin-2-yl methylcarbamate] was 28.2 nM; that for `Cc1cccc(-c2ncc3c(N4C[C@H]5CC[C@@H](C4)N5)nc(OCC45CCCN4CCC5)nc3c2F)c1C` [Example 275, 4-((1R,5S)-3,8-diazabicyclo[3.2.1]octan-3-yl)-7-(2,3-dimethylphenyl)-8-fluoro-2-((hexahydro-1H-pyrrolizin-7a-yl)methoxy)pyrido[4,3-d]pyrimidine] was 53.8 nM; that for `Cc1ccc2cccc(-c3ncc4c(N5C[C@H]6CC[C@@H](C5)N6)nc(OC[C@@H]5CCCN5C)nc4c3F)c2c1` [Example 321, 4-((1R,5S)-3,8-diazabicyclo[3.2.1]octan-3-yl)-8-fluoro-7-(7-methylnaphthalen-1-yl)-2-(((S)-1-methylpyrrolidin-2-yl)methoxy)pyrido[4,3-d]pyrimidine] was 613 nM. The value for `O[C@@H]1C[C@@H]2CN(c3nc(N4CCC4)nc4c(F)c(-c5cccc6cccc(Cl)c56)ncc34)C[C@H]1N2` [Example 152, (1R,5R,6R)-3-(2-(azetidin-1-yl)-7-(8-chloronaphthalen-1-yl)-8-fluoropyrido[4,3-d]pyrimidin-4-yl)-3,8-diazabicyclo[3.2.1]octan-6-ol] was 2650 nM. With `Fc1c(-c2cccc3cccc(Cl)c23)ncc2c(N3C[C@H]4CC[C@@H](C3)N4)nc(OCC34CCCN3CC(F)(F)C4)nc12` (stereo partly drawn) [Example 93, 4-((1R,5S)-3,8-diazabicyclo[3.2.1]octan-3-yl)-7-(8-chloronaphthalen-1-yl)-2-((2,2-difluorotetrahydro-1H-pyrrolizin-7a(5H)-yl)methoxy)-8-fluoropyrido[4,3-d]pyrimidine bis(2,2,2-trifluoroacetate)] the figure was 105 nM.

`CO[C@H]1CN2CCC[C@]2(COc2nc(N3CC4CCC(C3)N4)c3cnc(-c4cccc5cccc(Cl)c45)c(F)c3n2)C1` [Example 225, 4-((1R,5S)-3,8-diazabicyclo[3.2.1]octan-3-yl)-7-(8-chloronaphthalen-1-yl)-8-fluoro-2-((2-methoxytetrahydro-1H-pyrrolizin-7a(5H)-yl)methoxy)pyrido[4,3-d]pyrimidine bis-2,2,2-trifluoroacetate] had an IC50 of 9.2 nM. Take `Cc1cc2sc(N)nc2c(-c2ncc3c(N4C[C@H]5CC[C@@H](C4)N5)nc(OC[C@@]45CCCN4C[C@H](F)C5)nc3c2F)c1C` [Example 457, 4-(4-((1R,5S)-3,8-diazabicyclo[3.2.1]octan-3-yl)-8-fluoro-2-(((2R,7aS)-2-fluorohexahydro-1H-pyrrolizin-7a-yl)methoxy)pyrido[4,3-d]pyrimidin-7-yl)-5,6-dimethylbenzo[d]thiazol-2-amine]: the half-maximal inhibitory concentration (IC50) is 475 nM. `Fc1c(-c2cccc3cccc(Cl)c23)ncc2c(N3C[C@H]4CC[C@@H](C3)N4)nc(N3CC4(CCN4)C3)nc12` [Example 130, 4-((1R,5S)-3,8-diazabicyclo[3.2.1]octan-3-yl)-7-(8-chloronaphthalen-1-yl)-8-fluoro-2-(1,6-diazaspiro[3.3]heptan-6-yl)pyrido[4,3-d]pyrimidine] registered an IC50 of 1650 nM.

The values are drawn from patent US20230279025A1, “KRAS G12D INHIBITORS” (Mirati Therapeutics, Inc., priority 2020, published 2023).
